Measured values as given in patent US10226451B2, “Substituted bicyclic compounds as bromodomain inhibitors” (ZENITH EPIGENETICS LTD, priority 2013, dated 2019).

Assays:
Human AML MV-4-11 cells = experiment: Inhibition of cell proliferation in MV4-11 cells (CellTiter Aqueous One); assay type: cell-based; settings: 72 h
In short: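 MV4-11 cells at 5×10^4/well in IMDM with 10% FBS were exposed to increasing compound concentrations or 0.1% DMSO, in triplicate, for 72 h at 37 °C. A further 3-4 h with CellTiter Aqueous One reagent followed. A490, blank-corrected and expressed relative to DMSO, gave IC50.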

hIL-6 mRNA in U937 cells = experiment: Inhibition of hIL-6 mRNA transcription in LPS-stimulated U937 cells; assay type: cell-based; settings: Homo sapiens, U-937, PMA-differentiated U937 cells, LPS 1 ug/mL, 3 h, read-out: IL-6 activity
In short: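 U937 cells were differentiated to macrophages with 60 ng/mL PMA for 3 days, pretreated 1 h with compound in 0.1% DMSO, then stimulated with 1 ug/mL E. coli LPS for 3 h at 37° C. hIL-6 mRNA was quantified by one-step TaqMan RT-qPCR, normalized to cyclophilin, as fold expression versus control.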

MM1.s cells xenograft = experiment: In vivo efficacy, multiple myeloma xenograft model using MM1.s cells; parameters: species or system mouse; settings: SCID-Beige mice, oral dosing, tumor growth inhibition
Procedure: MM1.s cells (ATCC) were grown under standard cell culture conditions and SCID-Beige strain of female mice age 6-7 weeks were injected with 10×10^6 cells/animal in 100 μL PBS+100 μL Matrigel in the lower left abdominal flank. By approximately day 21 after MM1.s cells injection, mice were randomized based on tumor volume (L×W×H)/2) of average ˜120 mm^3. Mice were dosed orally with compound at 25 to 90 mg/kg b.i.d and or q.d in EA006 formulation at 10 mL/kg body weight dose volume. Tumor measurements were taken with electronic micro calipers and body weights measured on alternate days beginning from dosing period. The average tumor volumes, percent Tumor Growth Inhibition (TGI) and % change in body weights were compared relative to Vehicle control animals. The means, statistical analysis and the comparison between groups were calculated using Student's t-test in Excel.

[1] = target: T1, Brd4 bromodomain 1 (BRD4(1)) (Homo sapiens, UniProt O60885); experiment: Inhibition of tetra-acetylated histone H4 binding to Brd4 bromodomain 1 (HTRF/FRET); settings: tetra-acetylated histone H4 peptide, His-tagged bromodomain 200 nM, 2 h
T1 construct: made in house; host or cells: E. coli BL21(DE3)
In short: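 Inhibition was read as a drop in 665 nm relative to 620 nm HTRF signal after 2 h at room temperature, with IC50 from dose-response curves in duplicate wells. Reactions held 200 nM E. coli-expressed His-tagged bromodomain and 25-50 nM biotinylated tetra-acetylated histone H4 peptide. Buffer was 30 mM HEPES pH 7.4 with KF, CHAPS, BSA and 0.2% DMSO.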

[2] = system: Bcl2 and c-myc gene expression in MV4-11 and MM1.s tumors; experiment: Evaluation of target engagement in xenograft tumors (PD biomarkers); assay type: in vivo, mouse; settings: oral dose, tumors harvested 3, 6, 12, 24 hrs post dose
Procedure: MV4-11 and MM1.s cells (ATCC) were grown under standard cell culture conditions and (NCr) nu/nu fisol strain of female mice age 6-7 weeks were injected with 5×10^6 cells/animal in 100 μL PBS+100 μL Matrigel in the lower left abdominal flank. By approximately day 28 after MV4-11 and MM1.s cells injection, mice were randomized based on tumor volume (L×W×H)/2) of average ˜500 mm^3. Mice were dosed orally with compound in EA006 formulation at 10 mL/kg body weight dose volume and tumors harvested 3, 6, 12, 24 hrs post dose for Bcl2 and c-myc gene expression analysis as PD biomarkers.

IC50 (Human AML MV-4-11 cells): ≤ 0.3 µM | IC50 (hIL-6 mRNA in U937 cells): ≤ 0.3 µM | IC50 [1]: ≤ 0.3 µM
Structure (SMILES): Cc1noc(C)c1-c1cc(-c2c(C)nn(C)c2C)c2c(c1)[nH]c(=O)n2C [Example Compound 9, 5-(3,5-dimethylisoxazol-4-yl)-1-methyl-7-(1,3,5-trimethyl-1H-pyrazol-4-yl)-1H-benzo[d]imidazol-2(3H)-one]
In vivo activity (MM1.s cells xenograft): Active | In vivo activity [2]: Active
